Data as given in ChEMBL document CHEMBL5137136, “A Cytotoxic Heterodimeric Cyclic Diarylheptanoid with a Rearranged Benzene Ring from the Seagrass Zostera marina” (J Nat Prod, 2022).
Calls of active or inactive are those of the source. The calls are words filed in the database; no cut-off is given here.

Assays:
[1] = system: HCT-116; assay: Cytotoxicity against human HCT-116 cells assessed as cell growth inhibition at 10 uM incubated for 48 hrs by MTT assay relative to control; format: functional
[2] = system: HCT-116; assay: Cytotoxicity against human HCT-116 cells assessed as reduction in cell viability incubated for 48 hrs by MTT assay; format: functional, cell-based; details: HCT-116, 48 h
[3] = system: HCT-116; assay: Induction of morphological changes in human HCT-116 cells at 10 uM incubated for 48 hrs by phase contrast microscopy analysis; format: functional, cell-based
[4] = system: HCT-116; assay: Cytotoxicity against human HCT-116 cells assessed as reduction in cell viability at 10 uM incubated for 48 hrs by MTT assay relative to control; format: functional

| SMILES | inhibition at 10 µM [1] [%] | IC50 [2] [µM] | Activity [3] | Activity [4] [%] |
| --- | --- | --- | --- | --- |
| COc1cc2c3c(c1O)-c1cc(ccc1O)CC/C=C\[C@@H]3C([C@@H]1C3=CC(=O)[C@@]4(O)Oc5ccc(cc5[C@@H]14)CC/C=C\C=C\C3)=C2 | 23 | – | – | – |
| COc1cc2c3c(c1O)-c1cc(ccc1O)CC/C=C\[C@@H]3C([C@@H]1C3=CC(=O)[C@]14C(=O)Oc1ccc(cc14)CC/C=C\C=C\C3)=C2 | 73 | 7.6 | Active | – |
| COc1cc(O)c2cc1CC/C=C\C=C\CC1=C(O)C(=O)C=C(O2)[C@H]1C1=Cc2cc(OC)c(O)c3c2[C@@H]1/C=C\CCc1ccc(O)c-3c1 | – | 3.6 | – | 97 |
